In patent US10213451B2, “Methods and compounds for modulating the secretion or expression of adhesion proteins or angiopoietins of cells” (PACIFIC ARROW LIMITED, priority 2004, dated 2019):
Values after ≈ are worked out from the molar mass of the structure shown.

Key:
Caov 3 = test: MTT assay Caov 3; assay type: cell-based; conditions: Homo sapiens; Caov 3, Serous
Protocol: (§1) Majority of ovarian cancers arise from the surface epithelium of ovary, most of them belong to the histological subtypes of clear cell and serous carcinoma. We obtained 10 more human ovarian carcinoma cell-lines of these histological subtypes for these studies. The inhibition activity exerted by Xanifolia-Y was determined with MTT assay.

[1] = system: Angiopoietin 2 (Ang2) in ES2 cells; test: Angiopoietin-2 cellular content (Western blot); assay type: cell-based, human; conditions: low concentration (5, 10 ug/ml), 24 hours
Protocol: Methods: ES2 (human ovarian carcinoma cells) were grew in RPMI 1640 medium. 4.5 million cells were seeded in a T75 flask and grown for 24 hours before drug-treatment.
Drug-treatment: Cells cultures were treated with 5, 10 and 15 ug/ml (final concentration) of Xanifolia-Y3 [Y3-5, Y3-10, Y3-15]. or DMSO control [D-10]. After 24 hours, cells were suspended in 1 ml of SDS sample buffer (cell-extract). Samples (80 ul/lane) were applied to 10% SDS gel and electrophoresis was conducted with 100 volts for 2 hours. Protein was transferred to a nitrocellulose membrane electrophoretically. The nitrocellulose blot was blocked with 5% non-fat dry milk in PBS. The blot was then incubated with the first antibodies (goat anti-Ang2, SIGMA A0851) and second antibody (donkey anti-goat AP conjugated, Promega V115A). The immuno-bands were developed with BCIP/NBT color development system (Promega S3771).
Drug-treatment: Cells cultures were treated with 5, 10 and 15 ug/ml (final concentration) of Xanifolia-Y3 [Y3-5, Y3-10, Y3-15]. or DMSO control [D-10]. After 24 hours, cells were suspended in 1 ml of SDS sample buffer (cell-extract). Samples (80 ul/lane) were applied to a 10% SDS gel and electrophoresis was conducted with 100 volts for 2 hours. Protein was transferred to a nitrocellulose membrane electrophoretically. The nitrocellulose blot was blocked with 5% non-fat dry milk in PBS. […]

[2] = system: Fibronectin cellular content in ES2 cells; test: Cellular contents of Fibronectin and beta-actin (Western blot); assay type: cell-based, human; conditions: 24 hours
Protocol: Cells: ES2 (human ovarian carcinoma cells) were grew in RPMI 1640 medium. 1.5 million cells were seeded in a T25 flask and grown for 24 hours before drug-treatment. Drug-treatment: Cells cultures were replaced with fresh RPMI medium containing either 2.5 ul of DMSO (as control) [D]; or 10 ug/ml (final concentration) of Xanifolia-Y3 [Y]. After 24 hours, aliquot of culture medium was taken out for Fibronectin determination (Western blot method). The attached cells were suspended in 1 ml of SDS sample buffer (cell-extract).
Western Blot: Spent culture medium (0.6 ml) was mixed with SDS sample buffer (0.2 ml), and the cell-extract was boiled for 3 minutes before loading to SDS gel. Samples (80 ul/lane) were applied to a 6%-10% SDS gel and electrophoresis was conducted with 100 volts for 2 hours. Protein was transferred to a nitrocellulose membrane electrophoretically (30 min at 100 volts). The nitrocellulose blot was blocked with 5% non-fat dry milk in PBS (1-2 hours). The blot was then incubated with the first antibodies (mouse anti-FN, specific to human FN, SIGMA F0916 and mouse anti-beta actin, SIGMA A5316) and second antibody (Anti-mouse IgG AP conjugated, Promega S3721). The immuno-bands were developed with BCIP/NBT color development system (Promega S3771). Determination of Western band intensity: The band-images of Western blot were captured with a digital camera (3-5 pictures were taken per gel) and the intensity of bands was determined using “Image J” software.
FN concentrations were normalized with the cellular beta-Actin concentrations. Fibronectin secreted into medium and inside Y-treated cells were determined and compare to controls (DMSO-treated cells).

OVCA 429 = test: MTT assay OVCA 429; assay type: cell-based; conditions: Homo sapiens, OVCA429; OVCA 429, Serous
Protocol: as §1

TOV-21G = test: MTT assay TOV-21G; assay type: cell-based; conditions: Homo sapiens, TOV21G, Clear cell
Protocol: as §1

(lung)H460 cells = test: MTT assay H460; assay type: cell-based; conditions: Homo sapiens, NCI-H460
Protocol: Cells. Human cancer cell lines were obtained from American Type Culture Collection: HTB-9 (bladder), HeLa-S3 (cervix), DU145 (prostate), H460 (lung), MCF-7 (breast), K562 (leukocytes), HCT116 (colon), HepG2 (liver), U2OS (bone), T98G (brain), SK-MEL-5 (Skin) and OVCAR-3 (ovary). The cells were grown in following culture media: HeLa-53, DU145, MCF-7, Hep-G2 and T98G are in MEN (Earle's salts); HTB-9, H460, K562 and OVCAR-3 in RPMI-1640; HCT-116 and U2OS in McCoy-5A. They are supplemented with 10% fetal calf serum, glutamine and antibiotics, and incubated in an incubator with 5% CO2 humidified at 37° C.
MTT Assay. The procedure for MTT assay followed the method described by Carmichael et al. (1987) with modifications. […] The formazan (product of the reduction of tetrazolium by viable cells) formed and was dissolved with DMSO and the O.D. at 490 nm, and was measured by an ELISA reader. The MTT level of the cells before drug-treatment was also measured (T0). The % cell-growth (% G) is calculated as: % G=(TD−T0/TC−T0)×100(1), where TC or TD represents O.D. readings of control or drug-treated cells. When T0>TD, then the cytotoxicity (LC) expressed as % of the control is calculated as: % LC=(TD−T0/T0)×100(2).

## C/C=C(/C)C(=O)O[C@H]1[C@H](OC(=O)/C(C)=C\C)[C@@]2(CO)C(CC1(C)C)C1=CCC3[C@@]4(C)CC[C@H](O[C@@H]5OC(C(=O)O)[C@@H](O)C(O[C@@H]6O[C@@H](CO)C(O)C6O)C5O[C@@H]5OC(CO)[C@H](O)C(O)C5O)C(C)(C)C4CC[C@@]3(C)[C@]1(C)[C@@H](O)[C@H]2O (stereo partly drawn) [Xanifolia-Y, 3-O-[β-D-galactopyranosyl (1→2)]-α-L-arabinofuranosy (1→3)-β-D-glucuronopyranosyl-21,22-O-diangeloyl-3β, 15α, 16α, 21β, 22α, 28-hexahydroxyolean-12-ene]
Caov 3
  IC50: 7 µM
[1]
  Angiopoietin-2 immuno-band in cell extract: No detectable or minimal immuno-band
[2]; 10 ug/ml
  cellular beta-actin content: no change
  decrease of Fibronectin cellular content: 70%
[2]; Homo sapiens, ES-2, 10 ug/ml, read-out: Fibronectin cellular content, % of control
  activity at 10 µg/mL: 30%
OVCA 429
  IC50: 7 µM
TOV-21G
  IC50: 2.2 µM
(lung)H460 cells
  IC50: 7.5 µg/mL (≈ 6.57 µM)
